In brackets after ≈: the same amount, converted by molar mass.
Test system: Pasteurella multocida
Assay: minimum inhibitory concentration (MIC)
Method: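 Broth microdilution MIC (Sensititre BOPO7F bovine plate, CLSI methods) of 19 antimicrobials against field isolates of P. multocida, M. haemolytica, H. somni (deep nasopharyngeal swabs) and E. coli, Enterococcus spp. (rectal swabs) from weaned dairy heifers. Incubation 16-24 h at 35 C. MIC is the lowest concentration preventing visible growth. Values with <= or > lie at the tested range limits. Trimethoprim-sulfamethoxazole is given as the trimethoprim component of a 1:19 mixture.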

CO/N=C(\C(=O)N[C@@H]1C(=O)N2C(C(=O)O)=C(CSC(=O)c3ccco3)CS[C@H]12)c1csc(N)n1 [Ceftiofur]
Settings | minimum inhibitory concentration [µg/mL]
isolate (source animal id): 10 | ≤ 0.25
isolate (source animal id): 11 | ≤ 0.25
isolate (source animal id): 12 | ≤ 0.25
isolate (source animal id): 19 | ≤ 0.25
isolate (source animal id): 23 | ≤ 0.25
isolate (source animal id): 26 | ≤ 0.25
isolate (source animal id): 98 | ≤ 0.25
isolate (source animal id): 104 | ≤ 0.25
isolate (source animal id): 115 | ≤ 0.25
isolate (source animal id): 117 | ≤ 0.25
isolate (source animal id): 118 | ≤ 0.25
isolate (source animal id): 121 | ≤ 0.25
isolate (source animal id): 124 | ≤ 0.25
isolate (source animal id): 125 | ≤ 0.25
isolate (source animal id): 128 | ≤ 0.25
isolate (source animal id): 131 | ≤ 0.25
isolate (source animal id): 135 | ≤ 0.25
isolate (source animal id): 136 | ≤ 0.25
isolate (source animal id): 140 | ≤ 0.25
isolate (source animal id): 144 | ≤ 0.25
isolate (source animal id): 146 | ≤ 0.25
isolate (source animal id): 150 | ≤ 0.25
isolate (source animal id): 151 | ≤ 0.25
isolate (source animal id): 153 | ≤ 0.25
isolate (source animal id): 155 | ≤ 0.25
isolate (source animal id): 157 | ≤ 0.25
isolate (source animal id): 160 | ≤ 0.25
isolate (source animal id): 164 | ≤ 0.25
isolate (source animal id): 165 | ≤ 0.25
isolate (source animal id): 167 | ≤ 0.25
isolate (source animal id): 168 | ≤ 0.25
isolate (source animal id): 169 | ≤ 0.25
isolate (source animal id): 170 | ≤ 0.25
isolate (source animal id): 171 | ≤ 0.25
isolate (source animal id): 172 | ≤ 0.25
isolate (source animal id): 173 | ≤ 0.25
isolate (source animal id): 174 | ≤ 0.25
isolate (source animal id): 175 | 1 (≈ 1.91 µM)
isolate (source animal id): 176 | ≤ 0.25
isolate (source animal id): 177 | ≤ 0.25
isolate (source animal id): 178 | ≤ 0.25
isolate (source animal id): 179 | ≤ 0.25
isolate (source animal id): 182 | ≤ 0.25
isolate (source animal id): 192 | ≤ 0.25
isolate (source animal id): 193 | ≤ 0.25
isolate (source animal id): 195 | ≤ 0.25
isolate (source animal id): 196 | ≤ 0.25
isolate (source animal id): 197 | ≤ 0.25
isolate (source animal id): 198 | ≤ 0.25
isolate (source animal id): 199 | ≤ 0.25
isolate (source animal id): 200 | ≤ 0.25
isolate (source animal id): 201 | ≤ 0.25
isolate (source animal id): 203 | ≤ 0.25
isolate (source animal id): 204 | ≤ 0.25
isolate (source animal id): 205 | ≤ 0.25
isolate (source animal id): 206 | ≤ 0.25
isolate (source animal id): 207 | ≤ 0.25
isolate (source animal id): 208 | ≤ 0.25
isolate (source animal id): 209 | ≤ 0.25
isolate (source animal id): 210 | ≤ 0.25
isolate (source animal id): 213 | ≤ 0.25
isolate (source animal id): 216 | ≤ 0.25
isolate (source animal id): 223 | ≤ 0.25
isolate (source animal id): 227 | ≤ 0.25
isolate (source animal id): 229 | ≤ 0.25
isolate (source animal id): 233 | ≤ 0.25
isolate (source animal id): 234 | ≤ 0.25
isolate (source animal id): 237 | ≤ 0.25
isolate (source animal id): 241 | ≤ 0.25
isolate (source animal id): 245 | ≤ 0.25
isolate (source animal id): 247 | ≤ 0.25
isolate (source animal id): 250 | ≤ 0.25
isolate (source animal id): 254 | ≤ 0.25
isolate (source animal id): 255 | ≤ 0.25
isolate (source animal id): 258 | ≤ 0.25
isolate (source animal id): 261 | ≤ 0.25
isolate (source animal id): 262 | ≤ 0.25
isolate (source animal id): 269 | ≤ 0.25
isolate (source animal id): 270 | ≤ 0.25
isolate (source animal id): 274 | ≤ 0.25
isolate (source animal id): 275 | ≤ 0.25
isolate (source animal id): 276 | ≤ 0.25
isolate (source animal id): 277 | ≤ 0.25
isolate (source animal id): 278 | ≤ 0.25
isolate (source animal id): 279 | ≤ 0.25
isolate (source animal id): 280 | ≤ 0.25
isolate (source animal id): 284 | ≤ 0.25
isolate (source animal id): 285 | ≤ 0.25
isolate (source animal id): 287 | ≤ 0.25
isolate (source animal id): 290 | ≤ 0.25
isolate (source animal id): 294 | ≤ 0.25
isolate (source animal id): 295 | ≤ 0.25
isolate (source animal id): 296 | ≤ 0.25
isolate (source animal id): 307 | ≤ 0.25
isolate (source animal id): 310 | ≤ 0.25
isolate (source animal id): 311 | ≤ 0.25
isolate (source animal id): 312 | ≤ 0.25
isolate (source animal id): 313 | ≤ 0.25
isolate (source animal id): 315 | ≤ 0.25
isolate (source animal id): 316 | ≤ 0.25

CC[C@H]1OC(=O)C[C@@H](O)[C@H](C)[C@@H](O[C@@H]2O[C@H](C)[C@@H](O)[C@H](N(C)C)[C@H]2O)[C@@H](CCN2C[C@H](C)C[C@H](C)C2)C[C@@H](C)C(=O)/C=C/C(C)=C/[C@@H]1CO[C@@H]1O[C@H](C)[C@@H](O)[C@@H](OC)[C@H]1OC [Tilmicosin]
Settings | minimum inhibitory concentration [µg/mL]
isolate (source animal id): 10 | > 16
isolate (source animal id): 11 | > 16
isolate (source animal id): 12 | > 16
isolate (source animal id): 19 | > 16
isolate (source animal id): 23 | > 16
isolate (source animal id): 26 | > 16
isolate (source animal id): 98 | > 16
isolate (source animal id): 104 | > 16
isolate (source animal id): 115 | > 16
isolate (source animal id): 117 | > 16
isolate (source animal id): 118 | > 16
isolate (source animal id): 121 | > 16
isolate (source animal id): 124 | > 16
isolate (source animal id): 125 | > 16
isolate (source animal id): 128 | > 16
isolate (source animal id): 131 | > 16
isolate (source animal id): 135 | > 16
isolate (source animal id): 136 | > 16
isolate (source animal id): 140 | > 16
isolate (source animal id): 144 | > 16
isolate (source animal id): 146 | > 16
isolate (source animal id): 150 | > 16
isolate (source animal id): 151 | > 16
isolate (source animal id): 153 | > 16
isolate (source animal id): 155 | > 16
isolate (source animal id): 157 | 16 (≈ 18.4 µM)
isolate (source animal id): 160 | > 16
isolate (source animal id): 164 | > 16
isolate (source animal id): 165 | > 16
isolate (source animal id): 167 | 8 (≈ 9.2 µM)
isolate (source animal id): 168 | > 16
isolate (source animal id): 169 | 4 (≈ 4.6 µM)
isolate (source animal id): 170 | 16 (≈ 18.4 µM)
isolate (source animal id): 171 | 8 (≈ 9.2 µM)
isolate (source animal id): 172 | 8 (≈ 9.2 µM)
isolate (source animal id): 173 | > 16
isolate (source animal id): 174 | 8 (≈ 9.2 µM)
isolate (source animal id): 175 | 8 (≈ 9.2 µM)
isolate (source animal id): 176 | 8 (≈ 9.2 µM)
isolate (source animal id): 177 | 8 (≈ 9.2 µM)
isolate (source animal id): 178 | 4 (≈ 4.6 µM)
isolate (source animal id): 179 | 4 (≈ 4.6 µM)
isolate (source animal id): 182 | 16 (≈ 18.4 µM)
isolate (source animal id): 192 | 4 (≈ 4.6 µM)
isolate (source animal id): 193 | 8 (≈ 9.2 µM)
isolate (source animal id): 195 | 8 (≈ 9.2 µM)
isolate (source animal id): 196 | 8 (≈ 9.2 µM)
isolate (source animal id): 197 | 16 (≈ 18.4 µM)
isolate (source animal id): 198 | > 16
isolate (source animal id): 199 | 8 (≈ 9.2 µM)
isolate (source animal id): 200 | 4 (≈ 4.6 µM)
isolate (source animal id): 201 | 8 (≈ 9.2 µM)
isolate (source animal id): 203 | 4 (≈ 4.6 µM)
isolate (source animal id): 204 | 8 (≈ 9.2 µM)
isolate (source animal id): 205 | > 16
isolate (source animal id): 206 | 8 (≈ 9.2 µM)
isolate (source animal id): 207 | 8 (≈ 9.2 µM)
isolate (source animal id): 208 | 4 (≈ 4.6 µM)
isolate (source animal id): 209 | 4 (≈ 4.6 µM)
isolate (source animal id): 210 | > 16
isolate (source animal id): 213 | 8 (≈ 9.2 µM)
isolate (source animal id): 216 | 8 (≈ 9.2 µM)
isolate (source animal id): 223 | > 16
isolate (source animal id): 227 | 4 (≈ 4.6 µM)
isolate (source animal id): 229 | > 16
isolate (source animal id): 233 | > 16
isolate (source animal id): 234 | > 16
isolate (source animal id): 237 | > 16
isolate (source animal id): 241 | > 16
isolate (source animal id): 245 | > 16
isolate (source animal id): 247 | > 16
isolate (source animal id): 250 | > 16
isolate (source animal id): 254 | > 16
isolate (source animal id): 255 | > 16
isolate (source animal id): 258 | 8 (≈ 9.2 µM)
isolate (source animal id): 261 | > 16
isolate (source animal id): 262 | > 16
isolate (source animal id): 269 | 8 (≈ 9.2 µM)
isolate (source animal id): 270 | > 16
isolate (source animal id): 274 | > 16
isolate (source animal id): 275 | > 16
isolate (source animal id): 276 | > 16
isolate (source animal id): 277 | 8 (≈ 9.2 µM)
isolate (source animal id): 278 | > 16
isolate (source animal id): 279 | > 16
isolate (source animal id): 280 | > 16
isolate (source animal id): 284 | > 16
isolate (source animal id): 285 | > 16
isolate (source animal id): 287 | > 16
isolate (source animal id): 290 | > 16
isolate (source animal id): 294 | > 16
isolate (source animal id): 295 | > 16
isolate (source animal id): 296 | > 16
isolate (source animal id): 307 | > 16
isolate (source animal id): 310 | > 16
isolate (source animal id): 311 | > 16
isolate (source animal id): 312 | > 16
isolate (source animal id): 313 | > 16
isolate (source animal id): 315 | > 16
isolate (source animal id): 316 | > 16
